{"source": "patent US20170190671A1", "about": "“BIS(ARYL)CATECHOL DERIVATIVES AS HERBICIDES” (E I DU PONT DE NEMOURS AND COMPANY, priority 2014, published 2017)", "assay_type_in_all_cases": "in vivo", "conditions_in_all_cases": "scale 0 to 100", "key": {"[1]": {"test_system": "bluegrass (annual bluegrass, Poa annua)", "assay": "Test D preemergence", "summary_of_the_method": "(§1)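 Ratings of 0–100 reflect visual comparison with control plants at 14 to 21 days. For preemergence, compound was sprayed on silt loam just after sowing; for postemergence, on plants 2 to 18 cm in height.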"}, "[2]": {"test_system": "spring wheat (Triticum aestivum)", "assay": "Test D preemergence", "summary_of_the_method": "as §1"}, "[3]": {"test_system": "oilseed rape (Brassica napus)", "assay": "Test D preemergence", "summary_of_the_method": "as §1"}, "[4]": {"test_system": "pigweed (Amaranthus retroflexus)", "assay": "Test D preemergence", "summary_of_the_method": "as §1"}, "kochia (Kochia scoparia) [5]": {"test_system": "kochia (Kochia scoparia)", "assay": "Test D preemergence", "summary_of_the_method": "as §1"}, "[6]": {"test_system": "green foxtail (Setaria viridis)", "assay": "Test D postemergence", "summary_of_the_method": "as §1"}, "[7]": {"test_system": "chamomile (scentless chamomile, Matricaria inodora)", "assay": "Test D postemergence", "summary_of_the_method": "as §1"}, "[8]": {"test_system": "wild mustard (Sinapis arvensis)", "assay": "Test D postemergence", "summary_of_the_method": "as §1"}, "[9]": {"test_system": "deadnettle (henbit deadnettle, Lamium amplexicaule)", "assay": "Test D postemergence", "summary_of_the_method": "as §1"}, "[10]": {"test_system": "winter wheat (Triticum aestivum)", "assay": "Test D postemergence", "summary_of_the_method": "as §1"}, "[11]": {"test_system": "spring barley (Hordeum vulgare)", "assay": "Test D postemergence", "summary_of_the_method": "as §1"}, "[12]": {"test_system": "cutleaf geranium (Geranium dissectum)", "assay": "Test D postemergence", "summary_of_the_method": "as §1"}, "[13]": {"test_system": "galium (catchweed bedstraw, Galium aparine)", "assay": "Test D postemergence", "summary_of_the_method": "as §1"}, "[14]": {"test_system": "wild radish (Raphanus raphanistrum)", "assay": "Test D postemergence", "summary_of_the_method": "as §1"}, "[15]": {"test_system": "winter barley (Hordeum vulgare)", "assay": "Test D postemergence", "summary_of_the_method": "as §1"}, "[16]": {"test_system": "spring wheat (Triticum aestivum)", "assay": "Test D postemergence", "summary_of_the_method": "as §1"}, "[17]": {"test_system": "Russian thistle (Salsola kali)", "assay": "Test D postemergence", "summary_of_the_method": "as §1"}, "[18]": {"test_system": "lambsquarters (Chenopodium album)", "assay": "Test D postemergence", "summary_of_the_method": "as §1"}, "[19]": {"test_system": "speedwell (bird's-eye speedwell, Veronica persica)", "assay": "Test D postemergence", "summary_of_the_method": "as §1"}, "[20]": {"test_system": "field violet (Viola arvensis)", "assay": "Test D postemergence", "summary_of_the_method": "as §1"}, "kochia (Kochia scoparia) [21]": {"test_system": "kochia (Kochia scoparia)", "assay": "Test D postemergence", "summary_of_the_method": "as §1"}}, "data": [{"smiles": "FC(F)(F)c1cnc(Oc2c(Br)cccc2Oc2ncc(Cl)cn2)nc1", "note": "[Compound 24]", "values": [{"measurement": "Plant response rating, Bluegrass", "setting": "[1]; 16 g ai/ha", "value": 15}, {"measurement": "Plant response rating, Bluegrass", "setting": "[1]; 31 g ai/ha", "value": 20}, {"measurement": "Plant response rating, Bluegrass", "setting": "[1]; 62 g ai/ha", "value": 25}, {"measurement": "Plant response rating, Bluegrass", "setting": "[1]; 125 g ai/ha", "value": 35}, {"measurement": "Plant response rating, Wheat, Spring", "setting": "[2]; 16 g ai/ha", "value": 0}, {"measurement": "Plant response rating, Wheat, Spring", "setting": "[2]; 31 g ai/ha", "value": 0}, {"measurement": "Plant response rating, Wheat, Spring", "setting": "[2]; 62 g ai/ha", "value": 0}, {"measurement": "Plant response rating, Wheat, Spring", "setting": "[2]; 125 g ai/ha", "value": 40}, {"measurement": "Plant response rating, Oilseed Rape", "setting": "[3]; 16 g ai/ha", "value": 0}, {"measurement": "Plant response rating, Oilseed Rape", "setting": "[3]; 31 g ai/ha", "value": 15}, {"measurement": "Plant response rating, Oilseed Rape", "setting": "[3]; 62 g ai/ha", "value": 20}, {"measurement": "Plant response rating, Oilseed Rape", "setting": "[3]; 125 g ai/ha", "value": 80}, {"measurement": "Plant response rating, Pigweed", "setting": "[4]; 16 g ai/ha", "value": 60}, {"measurement": "Plant response rating, Pigweed", "setting": "[4]; 31 g ai/ha", "value": 100}, {"measurement": "Plant response rating, Pigweed", "setting": "[4]; 62 g ai/ha", "value": 100}, {"measurement": "Plant response rating, Pigweed", "setting": "[4]; 125 g ai/ha", "value": 100}, {"measurement": "Plant response rating, Kochia", "setting": "kochia (Kochia scoparia) [5]; 16 g ai/ha", "value": 0}, {"measurement": "Plant response rating, Kochia", "setting": "kochia (Kochia scoparia) [5]; 31 g ai/ha", "value": 25}, {"measurement": "Plant response rating, Kochia", "setting": "kochia (Kochia scoparia) [5]; 62 g ai/ha", "value": 60}, {"measurement": "Plant response rating, Kochia", "setting": "kochia (Kochia scoparia) [5]; 125 g ai/ha", "value": 100}, {"measurement": "Plant response rating, Foxtail, Green", "setting": "[6]; 16 g ai/ha", "value": 15}, {"measurement": "Plant response rating, Foxtail, Green", "setting": "[6]; 31 g ai/ha", "value": 15}, {"measurement": "Plant response rating, Foxtail, Green", "setting": "[6]; 62 g ai/ha", "value": 20}, {"measurement": "Plant response rating, Foxtail, Green", "setting": "[6]; 125 g ai/ha", "value": 30}, {"measurement": "Plant response rating, Chamomile", "setting": "[7]; 16 g ai/ha", "value": 5}, {"measurement": "Plant response rating, Chamomile", "setting": "[7]; 31 g ai/ha", "value": 5}, {"measurement": "Plant response rating, Chamomile", "setting": "[7]; 62 g ai/ha", "value": 10}, {"measurement": "Plant response rating, Chamomile", "setting": "[7]; 125 g ai/ha", "value": 15}, {"measurement": "Plant response rating, Mustard, Wild", "setting": "[8]; 16 g ai/ha", "value": 50}, {"measurement": "Plant response rating, Mustard, Wild", "setting": "[8]; 31 g ai/ha", "value": 80}, {"measurement": "Plant response rating, Mustard, Wild", "setting": "[8]; 62 g ai/ha", "value": 70}, {"measurement": "Plant response rating, Mustard, Wild", "setting": "[8]; 125 g ai/ha", "value": 85}, {"measurement": "Plant response rating, Deadnettle", "setting": "[9]; 16 g ai/ha", "value": 55}, {"measurement": "Plant response rating, Deadnettle", "setting": "[9]; 31 g ai/ha", "value": 70}, {"measurement": "Plant response rating, Deadnettle", "setting": "[9]; 62 g ai/ha", "value": 75}, {"measurement": "Plant response rating, Deadnettle", "setting": "[9]; 125 g ai/ha", "value": 85}, {"measurement": "Plant response rating, Wheat, Winter", "setting": "[10]; 16 g ai/ha", "value": 10}, {"measurement": "Plant response rating, Wheat, Winter", "setting": "[10]; 31 g ai/ha", "value": 10}, {"measurement": "Plant response rating, Wheat, Winter", "setting": "[10]; 62 g ai/ha", "value": 15}, {"measurement": "Plant response rating, Wheat, Winter", "setting": "[10]; 125 g ai/ha", "value": 15}, {"measurement": "Plant response rating, Barley, Spring", "setting": "[11]; 16 g ai/ha", "value": 15}, {"measurement": "Plant response rating, Barley, Spring", "setting": "[11]; 31 g ai/ha", "value": 20}, {"measurement": "Plant response rating, Barley, Spring", "setting": "[11]; 62 g ai/ha", "value": 20}, {"measurement": "Plant response rating, Barley, Spring", "setting": "[11]; 125 g ai/ha", "value": 25}, {"measurement": "Plant response rating, Geranium, Cutleaf", "setting": "[12]; 16 g ai/ha", "value": 20}, {"measurement": "Plant response rating, Geranium, Cutleaf", "setting": "[12]; 31 g ai/ha", "value": 30}, {"measurement": "Plant response rating, Geranium, Cutleaf", "setting": "[12]; 62 g ai/ha", "value": 45}, {"measurement": "Plant response rating, Geranium, Cutleaf", "setting": "[12]; 125 g ai/ha", "value": 65}, {"measurement": "Plant response rating, Galium", "setting": "[13]; 16 g ai/ha", "value": 40}, {"measurement": "Plant response rating, Galium", "setting": "[13]; 31 g ai/ha", "value": 70}, {"measurement": "Plant response rating, Galium", "setting": "[13]; 62 g ai/ha", "value": 85}, {"measurement": "Plant response rating, Galium", "setting": "[13]; 125 g ai/ha", "value": 90}, {"measurement": "Plant response rating, Radish, Wild", "setting": "[14]; 16 g ai/ha", "value": 75}, {"measurement": "Plant response rating, Radish, Wild", "setting": "[14]; 31 g ai/ha", "value": 75}, {"measurement": "Plant response rating, Radish, Wild", "setting": "[14]; 62 g ai/ha", "value": 95}, {"measurement": "Plant response rating, Radish, Wild", "setting": "[14]; 125 g ai/ha", "value": 100}, {"measurement": "Plant response rating, Barley, Winter", "setting": "[15]; 16 g ai/ha", "value": 10}, {"measurement": "Plant response rating, Barley, Winter", "setting": "[15]; 31 g ai/ha", "value": 15}, {"measurement": "Plant response rating, Barley, Winter", "setting": "[15]; 62 g ai/ha", "value": 20}, {"measurement": "Plant response rating, Barley, Winter", "setting": "[15]; 125 g ai/ha", "value": 25}, {"measurement": "Plant response rating, Wheat, Spring", "setting": "[16]; 16 g ai/ha", "value": 10}, {"measurement": "Plant response rating, Wheat, Spring", "setting": "[16]; 31 g ai/ha", "value": 15}, {"measurement": "Plant response rating, Wheat, Spring", "setting": "[16]; 62 g ai/ha", "value": 20}, {"measurement": "Plant response rating, Wheat, Spring", "setting": "[16]; 125 g ai/ha", "value": 20}, {"measurement": "Plant response rating, Russian Thistle", "setting": "[17]; 16 g ai/ha", "value": 10}, {"measurement": "Plant response rating, Russian Thistle", "setting": "[17]; 31 g ai/ha", "value": 25}, {"measurement": "Plant response rating, Russian Thistle", "setting": "[17]; 62 g ai/ha", "value": 30}, {"measurement": "Plant response rating, Russian Thistle", "setting": "[17]; 125 g ai/ha", "value": 55}, {"measurement": "Plant response rating, Lambsquarters", "setting": "[18]; 16 g ai/ha", "value": 35}, {"measurement": "Plant response rating, Lambsquarters", "setting": "[18]; 31 g ai/ha", "value": 45}, {"measurement": "Plant response rating, Lambsquarters", "setting": "[18]; 62 g ai/ha", "value": 60}, {"measurement": "Plant response rating, Lambsquarters", "setting": "[18]; 125 g ai/ha", "value": 75}, {"measurement": "Plant response rating, Speedwell", "setting": "[19]; 16 g ai/ha", "value": 35}, {"measurement": "Plant response rating, Speedwell", "setting": "[19]; 31 g ai/ha", "value": 60}, {"measurement": "Plant response rating, Speedwell", "setting": "[19]; 62 g ai/ha", "value": 80}, {"measurement": "Plant response rating, Speedwell", "setting": "[19]; 125 g ai/ha", "value": 90}, {"measurement": "Plant response rating, Field Violet", "setting": "[20]; 16 g ai/ha", "value": 65}, {"measurement": "Plant response rating, Field Violet", "setting": "[20]; 31 g ai/ha", "value": 75}, {"measurement": "Plant response rating, Field Violet", "setting": "[20]; 62 g ai/ha", "value": 85}, {"measurement": "Plant response rating, Field Violet", "setting": "[20]; 125 g ai/ha", "value": 98}, {"measurement": "Plant response rating, Kochia", "setting": "kochia (Kochia scoparia) [21]; 16 g ai/ha", "value": 40}, {"measurement": "Plant response rating, Kochia", "setting": "kochia (Kochia scoparia) [21]; 31 g ai/ha", "value": 65}, {"measurement": "Plant response rating, Kochia", "setting": "kochia (Kochia scoparia) [21]; 62 g ai/ha", "value": 80}, {"measurement": "Plant response rating, Kochia", "setting": "kochia (Kochia scoparia) [21]; 125 g ai/ha", "value": 95}]}]}
